Twelve compounds from patent US5064852A, “Indolinone derivatives” (Pfizer Inc., priority 1990, dated 1991) can be followed below.

The test system of assay [1] is sorbitol levels in diabetic rats. Put plainly: inhibition of sorbitol formation in diabetic rats, oral route. Conditions: dose levels ranging from 0.75 mg./kg. to 20 mg./kg. The format is in vivo, rat. The text has this:
As previously indicated, the 3-substituted 2-oxo-indoline-1-alkanoic acid compounds of this invention are readily adapted to therapeutic use as aldose reductase inhibitors for the control of chronic diabetic complications, in view of their ability to reduce lens sorbitol levels in diabetic subjects to a statistically significant degree. […] Furthermore, the herein described compounds of this invention can be administered by either the oral or parenteral routes of administration. […]
(§1) The activity of the compounds of the present invention, as agents for the control of chronic diabetic complications, is determined by their ability to successfully pass one or more of the following standard biological or pharmacological tests, viz., (1) measuring their ability to inhibit the enzyme activity of isolated aldose reductase; (2) measuring their ability to reduce or inhibit sorbitol accumulation in the sciatic nerve of acutely streptozotocinized (i.e., diabetic) rats; (3) measuring their ability to reverse already-elevated sorbitol levels in the sciatic nerve and lens of chronic streptozotocin-induced diabetic rats; (4) measuring their ability to prevent or inhibit galactitol formation in the lens of acutely galactosemic rats, and (5) measuring their ability to delay cataract formation and reduce the severity of lens opacities in chronic galactosemic rats.

The target in assay [2] is T1, aldose reductase (Homo sapiens, UniProt P15121).
T1 construct: partially purified aldose reductase enzyme obtained from human placenta; from tissue; host or cells: human placenta
As to the kind of experiment: inhibition of aldose reductase enzyme activity (procedure of S. Hayman et al. as modified by K. Sestanj et al.). Format: biochemical. The settings on record: for inhibition at 10 µM: 10^-5 M, partially purified aldose reductase from human placenta; for aldose reductase inhibitor potency (in words): no concentration given. As for the experimental part: as §1
The following oxindole-1-alkanoic acid final products of Examples 1-12, respectively, were tested at a concentration level of 10^-5 M for their ability to reduce or inhibit aldose reductase enzyme activity via the procedure of S. Hayman et al., as described in the Journal of Biological Chemistry, Vol. 240, p. 877 (1965) and as modified by K. Sestanj et al. in U.S. Pat. No. 3,821,383. In every case, the substrate employed was partially purified aldose reductase enzyme obtained from human placenta.

Molecules are shown by their SMILES.

As for `O=C(O)CN1C(=O)C(Cc2ccc(Cl)c(Cl)c2)c2ccccc21` (stereo not drawn) [Example 1, 3-(3,4-dichlorobenzyl)-2-oxo-indoline-1-acetic acid], the “inhibition of the formation of sorbitol levels in diabetic rats (in words)” value in assay [1] is given as “significantly high degree”. In assay [2], the inhibition at 10 µM was 92% and the “aldose reductase inhibitor potency (in words)” value was “highly potent”. In the case of `O=C(O)CN1C(=O)C(Cc2ccc(Cl)c(Cl)c2)c2cc(Cl)ccc21` (stereo not drawn) [Example 2, 5-chloro-3-(3,4-dichlorobenzyl)-2-oxo-indoline-1-acetic acid], in assay [2], testing at 10 µM gave an inhibition of 88% and the “aldose reductase inhibitor potency (in words)” value is recorded as “highly potent”. In assay [2], `O=C(O)CN1C(=O)C(Cc2ccc(Cl)c(Cl)c2)c2ccc(F)cc21` (stereo not drawn) [Example 3, 3-(3,4-dichlorobenzyl)-6-fluoro-2-oxo-indoline-1-acetic acid] yielded an inhibition at 10 µM of 68%. In assay [2], `COc1cc2c(cc1OC)N(CC(=O)O)C(=O)C2Cc1ccc(Cl)c(Cl)c1` (stereo not drawn) [Example 4, 3-(3,4-dichlorobenzyl)-5,6-dimethoxy-2-oxo-indoline-1-acetic acid] displayed an inhibition at 10 µM of 55%.

With `COc1ccc2c(c1)N(CC(=O)O)C(=O)C2Cc1ccc(Cl)c(Cl)c1` (stereo not drawn) [Example 5, 3-(3,4-dichlorobenzyl)-6-methoxy-2-oxo-indoline-1-acetic acid], in assay [2], testing at 10 µM gave an inhibition of 81% and the “aldose reductase inhibitor potency (in words)” value is on record as “highly potent”.

Consider `CC(C(=O)O)N1C(=O)C(Cc2ccc(Cl)c(Cl)c2)c2ccccc21` (stereo not drawn) [Example 6, 3-(3,4-dichlorobenzyl)-2-oxo-indoline-1-(α-methyl)acetic acid], for which the inhibition at 10 µM in assay [2] worked out at 25%. For `CC(c1ccc(Cl)c(Cl)c1)C1C(=O)N(CC(=O)O)c2ccccc21` (stereo not drawn) [Example 7, 3-(3,4-dichloro-α-methylbenzyl)-2-oxo-indoline-1-acetic acid], in assay [2], the inhibition at 10 µM stood at 94% and the “aldose reductase inhibitor potency (in words)” value was “highly potent”. As for `O=C(O)CN1C(=O)C2(Cc3ccccc3C2)c2ccccc21` [Example 8, 1,2-dihydro-spiro-inden[2,3']indolin-2'-one-1'-acetic acid], 10 µM produced 66% inhibition in assay [2].

In turn, `O=C(O)CN1C(=O)C2(Cc3ccc(Cl)cc3C2)c2ccccc21` (stereo not drawn) [Example 9, 5(6)-chloro-1,2-dihydro-spiro-inden[2,3']indolin-2'-one-1'-acetic acid] came in with an inhibition at 10 µM in assay [2] of 71%. In assay [2], `O=C(O)CN1C(=O)C(Cc2ccc(Cl)c(Cl)c2)(Cc2ccc(Cl)c(Cl)c2)c2ccccc21` [Example 10, 3,3-di(3,4-dichlorobenzyl)-2-oxo-indoline-1-acetic acid] gave an inhibition at 10 µM of 20%. For `CC(c1ccc(Cl)c(Cl)c1)C1(C)C(=O)N(CC(=O)O)c2ccccc21` (stereo not drawn) [Example 11, 3-(3,4-dichloro-α-methylbenzyl)-3-methyl-2-oxo-indoline-1-acetic acid], testing at 10 µM in assay [2] gave an inhibition of 72%. Turning to `O=C(O)CN1C(=O)C(Cc2ccc(Cl)c(Cl)c2)c2ccc(O)cc21` (stereo not drawn) [Example 12, 3-(3,4-dichlorobenzyl)-6-hydroxy-2-oxo-indoline-1-acetic acid], in assay [2], the inhibition at 10 µM worked out at 79% and the “aldose reductase inhibitor potency (in words)” value is “highly potent”.

One may read the inhibition as the change of the read-out against control, counted positive when it falls. A low value points to a response near the control.
